Assay: Human HepG2 cell viability assay in 384 well format
Assay type: toxicity, cell-based
Parameters: dose 125 nL, time 70.5 hour; cytotoxicity at 70.5 h: concentration not given beside the values
Conditions: HepG2 cells, read-out: Inhibition

Row | Compound | cytotoxicity at 70.5 h
1 | CCSCC(C)NCc1nn(C)c2ccc(C)cc12 (stereo unspecified) | -5.67%
2 | CNC(=O)[C@@H]1C[C@H]2CN(C(=O)c3ccco3)C[C@H]2N1C | 2.59%
3 | COCCN1CC2(CCCN(C(=O)NCCc3cccs3)C2)CCC1=O (stereo unspecified) | 4.85%
4 | COCCN(C)CCN1CC2(CCN(C3CCOCC3)CC2)OC1=O | 20.5%
5 | O=C1CCc2cc(-c3csc(CCN4CCCC4=O)n3)ccc2N1 | -14.6%
6 | CC(C)(C)n1ncc2c1CCCC2NCc1cccc(C(N)=O)c1 (stereo unspecified) | 3.6%
7 | CC(C)OCCS(=O)(=O)N1CCN(Cc2ccco2)CC1 | -4.45%
8 | COc1cccc(C2(CNC(C)c3nnc(C)o3)CCCC2)c1 (stereo unspecified) | -13.9%
9 | Cc1ccc(C)c(CN(C)Cc2nnc3ccccn23)c1 | 14.1%
10 | C[C@@H]1CN(C2(C(=O)N3CCCCCC3)Cc3ccccc3C2)C[C@H](C)O1 | -7.47%
11 | CC(CN1CCC2(CC1)N=C(N(C)C)NC2=O)c1ccccc1 (stereo unspecified) | -12.1%
12 | Cc1nn(C)c(C)c1C1CCCN1Cc1nc(-c2ccccn2)no1 (stereo unspecified) | -5.05%
13 | CC(=O)Nc1cc(C2CC2)nn1-c1nc(C)c(C)c(=O)[nH]1 | 38.4%
14 | COc1ccccc1CC(=O)N1CCC(NCc2ccc(C)o2)CC1 | -11.2%
15 | Cc1oncc1C(=O)NCc1cc(=O)n2c(n1)CN(C(C)C)CCC2 | -4.07%
16 | CN(C)Cc1cn(-c2ccccc2C(=O)NCC2CCCCN2C)cn1 (stereo unspecified) | 25.3%
17 | COc1c(C2CCCN2Cc2c(C)noc2C)c(C)nn1C (stereo unspecified) | -5.56%
18 | CSc1ccc(NC(=O)Cn2cc(NC(C)=O)cn2)cc1 | -7.71%
19 | Cc1ccccc1C(C)NC(=O)Cc1c(C)nc2cc(=O)[nH]n2c1C (stereo unspecified) | -10.1%
20 | CCn1cnnc1CNC(=O)N1CCN(c2ccccc2OC)CC1 | -9.83%
21 | COc1ccc(OCCN(C)Cc2nc3c(cnn3C)c(=O)[nH]2)cc1 | -3.93%

Row | Compound | cytotoxicity at 70.5 h
22 | CCOCC1(CNCc2cc(O)c3cc(C)ccc3n2)CC1 | -1.7%
23 | COCc1cccc(CNc2cnn(C(C)(C)C)c(=O)c2Cl)c1 | 41%
24 | CC(C)Cn1ncc(C(=O)NS(=O)(=O)C2CCCC2)c1C1CC1 | -8.4%
25 | Cc1ccc(F)cc1NC(=O)c1[nH]ncc1Br | -7.98%
26 | O=c1n(CCn2cccc2)nc(C2CCNCC2)n1Cc1ccccc1 | -3.92%
27 | COc1ccc(N2CCC(NCc3csc(C(C)C)n3)CC2)cc1 | 4.75%
28 | CN(C)Cc1cncc2c1CCN(Cc1cnn(C)c1)C2 | -0.555%
29 | C[S+]([O-])c1ccc(NC(=O)Cc2cccnc2)cc1F (stereo unspecified) | 11.1%
30 | O=C(CCNCc1cccc2c1OCCCO2)NC1CCCC1 | 6.45%
31 | CCO[C@H]1CN(C)C[C@@H]1NC(=O)c1cc(C)nc2c(C)c(C)ccc12 | -6.51%
32 | CCCOc1c(CNC2CCSC2)cccc1OC (stereo unspecified) | -11.2%
33 | CCN(CC)c1ccc(C2C3=C(COC3=O)Nc3[nH]nc(C)c32)cc1 (stereo unspecified) | -4.13%
34 | c1cc(COC[C@]23COC[C@H]2CN(Cc2ccsc2)C3)ccn1 | 7.32%
35 | CC(NC(=O)NCCCn1cccn1)c1ccc2c(c1)NC(=O)CO2 (stereo unspecified) | 46.4%
36 | CN(C(=O)Cc1coc(-c2cccs2)n1)C1(C#N)CCC1 | -6.29%
37 | CN(Cc1cnn(C)c1)C(=O)NC1CCN(Cc2ccccn2)CC1 | -11.3%
38 | CCNC(=O)[C@@H]1C[C@@H](NC(=O)c2ccc(C)cc2O)CN1CCCSC | -3.38%
39 | CN1CCN(c2cc(CNC(=O)c3ccc(=O)n(C)c3)ccn2)CC1 | -15.6%
40 | CN1CCC(N(Cc2ccncc2)C(=O)COCC2CCCCO2)CC1 (stereo unspecified) | -1.65%
41 | Cn1c(C(=O)NS(C)(=O)=O)ccc1-c1ccccc1 | -6.29%
42 | COc1ncc(CN2CCC3(CCNC(=O)CC3)CC2)cn1 | 4.98%

Row | Compound | cytotoxicity at 70.5 h
43 | c1ccc(-n2nnnc2CNCC2CCCN2c2cccnn2)cc1 (stereo unspecified) | -0.967%
44 | Cc1[nH]c2nc(CNc3ccccc3Cl)nn2c(=O)c1C | -10.8%
45 | COc1ccc2c(C)nc(N3CCN([C@H]4CCCC[C@@H]4O)CC3)nc2c1 | 18.8%
46 | Cc1ccc(S(=O)(=O)N2CCN(CCC(N)=O)CC2)s1 | -7.66%
47 | Cc1cc(CN2CCc3nc(C(C)C)nc(O)c3CC2)c(C)s1 | -0.545%
48 | COc1ccc2c(c1)C1(CCN(Cc3cccnc3)CC1)N(C)CC2 | -1.98%
49 | COc1cc(Cl)cc(CN2CCCC(N3CCCC3)C2)c1OC (stereo unspecified) | -14.7%
50 | CN1C(=O)CO[C@H]2CN(C(=O)Nc3ccc(F)cc3)C[C@H]21 | -7.97%
51 | Fc1ccc(C2CCCCN2Cc2cc(-c3ccccn3)no2)cc1 (stereo unspecified) | 17.8%
52 | CN(C)C1COC2(CCN(Cc3nccs3)CC2)C1 (stereo unspecified) | -4.71%
53 | c1cn(Cc2ccc(N3CCCN(C4CCCC4)CC3)nc2)cn1 | 38.7%
54 | c1cc(-c2cn[nH]c2)ccc1CN1CCNCC1 | -3.83%
55 | CCN1Cc2nc(OC)c(CNC(=O)C3CCS(=O)(=O)CC3)cc2C1=O | -2.6%
56 | Cc1nc(-c2ccco2)ccc1C(=O)N1CCCC1Cn1cccn1 (stereo unspecified) | 7.82%
57 | CC(C)(C)N1CCN(C(=O)Nc2cc(C(F)(F)F)c[nH]c2=O)CC1 | 10.7%
58 | CCN(C(=O)COc1nc(Cc2ccc(F)cc2)no1)C1CC1 | -5.41%
59 | COc1ccc(F)c(CN2CCCC(O)(CNCc3ccoc3)C2=O)c1 (stereo unspecified) | -0.0121%
60 | c1cnnc(N2CCCC(NCc3cccc4c3OCCO4)C2)c1 (stereo unspecified) | 6.38%
61 | Cc1n[nH]c(C)c1NC(=O)NCc1cc[nH]n1 | -12.5%
62 | O=C(C1CC1)N1CCCC1C1CCN(Cc2ccccc2)CC1 (stereo unspecified) | 1.42%
63 | Cc1nccn1CC1CCCN1S(=O)(=O)Cc1ccc(F)cc1 (stereo unspecified) | -0.149%

Row | Compound | cytotoxicity at 70.5 h
64 | O=C(N[C@@H]1CN(c2ncc(F)cn2)[C@@H]2COC[C@@H]21)c1cscn1 | -13.8%
65 | CCn1cc(NC(=O)NCc2ccc3c(c2)OCO3)cn1 | -1.53%
66 | O=C1NC2(CCc3ccccc31)CCN(C(=O)c1ccncc1)C2 (stereo unspecified) | -3.88%
67 | Cc1ccccc1CCC1CCCN(Cc2nnc(-c3ccco3)o2)C1 (stereo unspecified) | -12.7%
68 | c1cncc(-c2ccc3c(c2)C2(CCNCC2)CC3)c1 | 52.4%
69 | Cc1nc(C)n(CC2CCCN2Cc2nc3ccccc3o2)n1 (stereo unspecified) | -5.98%
70 | O=C(C1CC1)N1CCC2(CCN(Cc3cccc(F)c3)CC2)CC1 | -0.144%
71 | Nc1ccc(C(=O)N2CCCC(c3nccn3Cc3cscn3)C2)cn1 (stereo unspecified) | -3.06%
72 | Cc1ccc(C2CN(C(=O)NCc3nnc4ccccn34)CCO2)o1 (stereo unspecified) | -10.6%
73 | Cc1cc(NCC2CCCCC2)n2ncnc2n1 | -2.65%
74 | CN(CC(=O)Nc1cc(C(F)(F)F)c[nH]c1=O)Cc1ccccc1 | -11.2%
75 | COCCn1/c(=N\C(=O)CN(C)S(C)(=O)=O)sc2cc(Cl)ccc21 | 17%
76 | O=C(N1CCOCC(O)C1)C1(c2ccc(Cl)cc2)CCC1 (stereo unspecified) | 21.7%
77 | Cc1ccc(S(C)(=O)=O)cc1C(=O)NS(=O)(=O)c1ccc(Cl)cc1 | -4.48%
78 | Cn1ccc(C(=O)N2CCc3[nH]nc(Nc4ccccc4)c3C2)n1 | 1.75%
79 | CCC(C)n1cnc(S(=O)(=O)N(C)c2cccnc2N(C)C)c1 (stereo unspecified) | -7.28%
80 | CC(C)NC(=O)[C@@H]1C[C@@H](N)CN1C(=O)CCSCc1ccc(F)cc1 | -3.93%
81 | O=C(CC1CC1)N1CCC2(CCCN(CCOc3ccccc3)C2)C1 (stereo unspecified) | -11.8%
